Laboratory results published in patent publication US20060148725A1, “Selective 11beta HSD inhibitors and methods of use thereof” (The Miriam Hospital, priority 2001, published 2006).

How the values were obtained:
11β-HSD1 Dehydrogenase = 11β-HSD1 Dehydrogenase (Rattus norvegicus, UniProt P16232); assay: Inhibition of 11β-HSD1 dehydrogenase activity (Table 1); assay type: biochemical; conditions: inhibition class in words
11β-HSD2 Dehydrogenase = target: T1, 11β-HSD2 Dehydrogenase (Ovis aries, UniProt P50168); assay: Inhibition of 11β-HSD2 dehydrogenase activity (Table 1); assay type: biochemical, sheep; conditions: inhibition class in words
T1 construct: using 50 nM corticosterone substrate concentration and sheep kidney microsomes; from tissue; host or cells: sheep kidney microsomes
T1 sequence (P50168 1-427): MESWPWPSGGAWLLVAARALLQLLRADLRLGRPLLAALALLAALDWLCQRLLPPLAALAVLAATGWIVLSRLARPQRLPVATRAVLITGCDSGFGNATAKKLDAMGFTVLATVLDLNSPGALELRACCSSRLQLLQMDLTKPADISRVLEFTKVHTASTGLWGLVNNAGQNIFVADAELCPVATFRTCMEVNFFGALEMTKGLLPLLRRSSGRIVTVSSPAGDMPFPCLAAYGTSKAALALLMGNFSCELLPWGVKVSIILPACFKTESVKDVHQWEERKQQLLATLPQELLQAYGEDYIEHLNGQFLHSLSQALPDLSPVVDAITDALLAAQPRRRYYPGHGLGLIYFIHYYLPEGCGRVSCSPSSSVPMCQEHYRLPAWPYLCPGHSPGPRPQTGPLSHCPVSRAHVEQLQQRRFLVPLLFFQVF

11β-HSD1 Reductase = 11β-HSD1 Reductase (Rattus norvegicus, UniProt P16232); assay: Inhibition of 11β-HSD1 reductase activity (Table 1); conditions: inhibition class in words
Sequence of 11β-HSD1 Reductase (P16232 whole entry): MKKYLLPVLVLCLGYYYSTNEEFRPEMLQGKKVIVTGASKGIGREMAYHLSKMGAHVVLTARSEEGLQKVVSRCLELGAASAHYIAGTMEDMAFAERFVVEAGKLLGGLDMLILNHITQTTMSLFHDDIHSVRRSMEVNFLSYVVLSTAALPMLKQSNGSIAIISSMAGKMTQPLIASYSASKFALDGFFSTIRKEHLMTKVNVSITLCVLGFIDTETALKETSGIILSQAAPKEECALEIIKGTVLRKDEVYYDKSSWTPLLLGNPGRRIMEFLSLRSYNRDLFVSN

rat aortic rings = conditions: aortic rings incubated with corticosterone; previously demonstrated; cited from earlier work

Sequence of 11β-HSD1 Dehydrogenase (P16232 whole entry): as above

| Compound | 11β-HSD1 Dehydrogenase (11β-HSD1 Dehydrogenase) | 11β-HSD2 Dehydrogenase (11β-HSD2 Dehydrogenase) | 11β-HSD1 Reductase (11β-HSD1 Reductase) | effect of the steroid on contractile responses to graded phenylephrine compared to controls (rat aortic rings) |
| --- | --- | --- | --- | --- |
| C[C@]12CCC(=O)C=C1CC[C@@H]1[C@H]2C(=O)C[C@]2(C)C(=O)CC[C@H]12 (stereo in doubt) [11-Keto-androstenedione] | No Inhibition | No Inhibition | Selective Inhibitor |  |
| C[C@]12CC[C@H](O)C[C@@H]1CC[C@@H]1[C@@H]2[C@@H](O)C[C@]2(C=O)[C@@H](C(=O)CO)CC[C@@H]12 [3α,5α-reduced aldosterone] | Moderate Inhibitor | Potent Inhibitor | No Inhibition |  |
| C[C@]12CC[C@H](O)C[C@@H]1CC[C@@H]1[C@@H]2C(=O)C[C@]2(C)C(=O)CC[C@@H]12 [3α,5α-reduced-11-keto-androstenedione] | No Inhibition |  | Selective Inhibitor |  |
| C[C@]12CC[C@H](O)C[C@@H]1CC[C@H]1[C@@H]3CC[C@H](O)[C@@]3(C)CC(=O)[C@@H]12 [3α,5α-reduced-11-keto-testosterone] | No Inhibition |  | Selective Inhibitor |  |
| C[C@]12CC[C@H](O)C[C@H]1CC[C@@H]1[C@H]2[C@@H](O)C[C@]2(C)C(=O)CC[C@H]12 [3α,5α-reduced-11β-OH-androstenedione] | Moderate Inhibitor | Potent Inhibitor (Non-Selective) | No Inhibition |  |
| CC(=O)[C@H]1CC[C@H]2[C@@H]3CC[C@H]4C[C@@H](O)CC[C@]4(C)[C@H]3[C@@H](O)C[C@]12C [3α,5α-reduced-11β-OH-progesterone] | Potent Inhibitor (Non-Selective) | Potent Inhibitor (Non-Selective) | No Inhibition |  |
| C[C@]12CC[C@H](O)C[C@@H]1CC[C@@H]1[C@@H]2[C@@H](O)C[C@]2(C)[C@@H](O)CC[C@@H]12 [3α,5α-reduced-11β-OH-testosterone] | Potent Inhibitor (Non-Selective) | Potent Inhibitor (Non-Selective) | No Inhibition |  |
| C[C@]12CC[C@H](O)C[C@@H]1CC[C@@H]1[C@@H]2[C@@H](O)C[C@]2(C)[C@@H](C(=O)CO)CC[C@@H]12 [3α,5α-reduced-corticosterone] | Potent Inhibitor | Potent Inhibitor | No Inhibition |  |
| C[C@]12CC[C@H](O)C[C@@H]1CC[C@H]1[C@@H]3CC[C@H](C(=O)CO)[C@@]3(C)CC(=O)[C@@H]12 [3α,5α-tetrahydro-11-dehydro-corticosterone] | No Inhibition | Potent Inhibitor | Potent Inhibitor |  |
| CC(=O)[C@H]1CC[C@@H]2[C@@H]3CC[C@@H]4C[C@@H](O)CC[C@]4(C)[C@@H]3[C@@H](O)C[C@]12C [3α,5β-reduced-11β-OH-progesterone] | Moderate Inhibitor | No Inhibition | No Inhibition |  |
| C[C@]12CC[C@H](O)C[C@H]1CC[C@@H]1[C@H]2[C@@H](O)C[C@@]2(C)[C@@H]1CC[C@@H]2O [3α,5β-reduced-11β-OH-testosterone] | Moderate Inhibitor | No Inhibition | No Inhibition |  |
| C[C@]12CCC(=O)C[C@@H]1CC[C@@H]1[C@@H]2[C@@H](O)C[C@]2(C)[C@@H](C(=O)CO)CC[C@@H]12 [5α-dihydro-corticosterone] | Potent Inhibitor | Potent Inhibitor | No inhibition |  |
| CC(=O)[C@H]1CC[C@@H]2[C@@H]3CCC4=CC(=O)CC[C@]4(C)[C@@H]3C(=O)C[C@]12C [11-Keto-progesterone] | No Inhibition | Potent Inhibitor | Selective Inhibitor |  |
| C[C@]12CC(=O)[C@H]3[C@@H](CCC4=CC(=O)CC[C@@]43C)[C@@H]1CC[C@@H]2O [11-Keto-testosterone] | No Inhibition | No Inhibition | Selective Inhibitor |  |
| CC(=O)[C@H]1CC[C@@H]2[C@@H]3CCC4=CC(=O)CC[C@]4(C)[C@@H]3[C@@H](O)C[C@]12C [11β-OH-progesterone] | Potent Inhibitor (Non-Selective) |  | No Inhibition |  |
| C[C@]12C[C@H](O)[C@@H]3[C@@H](CCC4=CC(=O)CC[C@@]43C)[C@H]1CC[C@@H]2O [11β-OH-testosterone] | Inhibitor (Non-Selective) | Inhibitor (Non-Selective) | No Inhibition |  |
| C[C@]12C[C@H](O)[C@H]3[C@@H](CCC4=CC(=O)CC[C@@]43C)[C@@H]1CC[C@@H]2C(=O)CO [corticosterone] |  |  |  | amplified contractile responses |
| chenodeoxycholic acid | Selective inhibitor | No Inhibition | No Inhibition |  |
